Earlier results on 3 molecules are cited in paper PMC3261373 (Bioconjugate Chemistry, 2011).

For data set [1], the system named is angiogenesis and tumor growth. Particulars: in words.
The test system of the next data set is αvβ3-integrin. Particulars: in vivo blocking studies.

On to `CC(C)C[C@H](NC(=O)[C@@H](O)[C@H](N)Cc1ccccc1)C(=O)O` [bestatin], for which, in the data set with APN (in words), the “mode of APN inhibition” value is listed as “slow-binding competitive inhibitor”. Further, in data set [1], the “effect on angiogenesis and tumor growth” value is “suppressed angiogenesis and tumor growth”.
On to cyclic CNGRC [cyclic CNGRC peptide], for which the “binding affinity to APN” value with APN (enzyme inhibition studies) is “moderate binding affinity”. Moreover, the “binding to APN/CD13” value with APN (in words) is given as “known to bind APN/CD13”.
Regarding “cyclic CisoDGRC [^99mTc-labeled cyclic CisoDGRC conjugate]”, the “binding to tumors and tissues expressing αvβ3-integrin” value with αvβ3-integrin is reported as “selective binding”.
